From PMC10573892, “β-Lactam TRPM8 Antagonists Derived from Phe-Phenylalaninol Conjugates: Structure–Activity Relationships and Antiallodynic Activity” (International Journal of Molecular Sciences, 2023)

Key:
rTRPM8 = target: T1, rTRPM8 (Rattus norvegicus, UniProt Q8R455); assay: Patch-Clamp electrophysiology on single HEK293 cells expressing rat TRPM8; assay type: cell-based; conditions: activation by 100 µM menthol; holding voltage −60 mV
T1 construct: expressed in transfected cells
Text: A recent research study using Patch-Clamp, among other techniques, established that menthol occupies a cavity within the TRPM8 S1–S4 transmembrane helix, with the OH group forming an H-bond with the δ-NH of R842 residue, and Van der Waals interactions among the methyl groups of the ^iPr moiety and residues I846 and L843 [41].
This is evident by a negligible current at negative potentials and a linear intensification of the ohmic current at positive voltages. When applying compound 34 at a concentration of […], a noticeable reduction in menthol-induced activity at depolarizing voltages was observed (indicated by the red line) compared to menthol alone. Dose–response relationships for both tested compounds were established through triplicate experiments at various concentrations, applying a holding voltage of −60 mV (as shown in Figure 2B).
(§1) Calcium fluorometry, Patch-Clamp assays and in vivo experiments were performed using the methodology previously described for TRPM8 [35] or TRPM3 [61]. In the Patch -Clamp experiments, the intracellular pipette solution contained (in mM) 140 KCl, 5 EGTA, and 10 mM HEPES, adjusted to pH 7.2 with KOH, and the extracellular solution contained (in mM) 140 NaCl, 2 CaCl2, 1 MgCl2, 10 D-glucose and 10 HEPES, adjusted to pH 7.4 with NaOH. Selectivity against TRPV1, TRPV3, TRPA1 and ASIC3 was subcontracted to Eurofins-CEREP or Eurofins-PANLABS (see ref. [35] for more details).
Figure 2 Compound 34 blocks TRPM8-mediated responses evoked by menthol in rTRPM8-expressing HEK293 cells. (A) IV curves obtained after exposure to vehicle solution (green trace), 100 µM menthol (blue trace) and 100 µM menthol + 10 µM 34 (red trace). Peak current data were expressed as pA/pF (to allow comparison among different size cells). Each point is the mean ± SEM of n = 15. (B) Concentration/response curves for rTRPM8 current blockade by 34 at a holding voltage of −60 mV. […]

hCB2 = hCB2 (Homo sapiens, UniProt P34972); assay: Radioligand binding at cannabinoid CB2 receptor; conditions: radioligand [3H]WIN 55212-2
Text: (§2) Furthermore, the investigation extended to measuring the binding affinity of compound 34 to calcitonin gene-related peptide hCGRPR, cannabinoid hCB2 and muscarinic hM3 receptors, which are all relevant to different pain conditions.

hTRPA1 = target: T2, hTRPA1 (Homo sapiens, UniProt O75762); assay: TRPA1 channel Ca2+ microfluorimetry (allylisothiocyanate 10 μM); assay type: cell-based; conditions: agonist allylisothiocyanate 10 μM
T2 construct: Eurofins-CEREP or Eurofins-PANLABS (contract assay)
Text: (§3) The effects of compound 34 have been evaluated on different ion channels and receptors implicated in pain-related processes to assess the selectivity for TRPM8 channels. First, some TRP channels that play a role in temperature integration and nociception were selected, including hTRPV1, hTRPV3, hTRPA1 and TRPM3. Additionally, the evaluation encompassed the hASIC3 channel with widespread distribution within the peripheral nervous system and contributions to the excitability of primary sensory neurons. In each instance, the compound was subjected to evaluation at a consistent concentration of 10 µM.
as §1

hTRPV3 = target: T3, hTRPV3 (Homo sapiens, UniProt Q8NET8); assay: TRPV3 channel Ca2+ microfluorimetry (2-APB 30 μM); assay type: cell-based; conditions: agonist 2-APB 30 μM
T3 construct: Eurofins-CEREP or Eurofins-PANLABS (contract assay)
T3 sequence (Q8NET8 1-790): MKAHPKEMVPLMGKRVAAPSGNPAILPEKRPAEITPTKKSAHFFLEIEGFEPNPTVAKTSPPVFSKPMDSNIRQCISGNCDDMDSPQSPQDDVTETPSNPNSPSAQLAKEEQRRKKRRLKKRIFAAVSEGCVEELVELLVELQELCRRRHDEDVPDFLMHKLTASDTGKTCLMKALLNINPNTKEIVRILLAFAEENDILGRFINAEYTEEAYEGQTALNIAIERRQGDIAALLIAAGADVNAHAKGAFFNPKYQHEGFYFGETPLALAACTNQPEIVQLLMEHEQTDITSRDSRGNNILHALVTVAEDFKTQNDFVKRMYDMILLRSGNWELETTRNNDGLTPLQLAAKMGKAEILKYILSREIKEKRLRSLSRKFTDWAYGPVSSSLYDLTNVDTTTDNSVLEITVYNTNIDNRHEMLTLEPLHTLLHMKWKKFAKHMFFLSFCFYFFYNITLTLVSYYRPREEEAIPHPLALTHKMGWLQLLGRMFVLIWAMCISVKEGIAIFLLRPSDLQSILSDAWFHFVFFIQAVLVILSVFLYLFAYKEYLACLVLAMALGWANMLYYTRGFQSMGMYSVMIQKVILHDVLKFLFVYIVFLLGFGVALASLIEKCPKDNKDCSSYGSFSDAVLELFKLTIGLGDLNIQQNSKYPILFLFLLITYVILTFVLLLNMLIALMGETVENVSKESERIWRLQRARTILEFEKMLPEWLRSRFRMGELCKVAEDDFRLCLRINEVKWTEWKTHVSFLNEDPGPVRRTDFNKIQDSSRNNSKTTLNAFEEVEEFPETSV
Text: as §3, §1

hTRPV1 [1] = target: T4, hTRPV1 (Homo sapiens, UniProt Q8NER1); assay: TRPV1 channel Ca2+ microfluorimetry (capsaicin 30 nM); assay type: cell-based; conditions: 10 μM; agonist capsaicin 30 nM
T4 construct: Eurofins-CEREP or Eurofins-PANLABS (contract assay)
Text: as §3, §1

hTRPV1 [2] = target: T4, hTRPV1; parameters: method as in PMID 35269831; conditions: model compound; cited from earlier work
hM3 = hM3 (Homo sapiens, UniProt P20309); assay: Radioligand binding at muscarinic M3 receptor; conditions: radioligand [3H]4-DMAP
Text: as §2

hCGRPR = hCGRPR (Homo sapiens, UniProt O60894+Q16602); assay: Radioligand binding at CGRP receptor; conditions: radioligand [125]hGCRPα
Text: as §2

hASIC3 channel = target: T5, hASIC3 channel (Homo sapiens, UniProt Q9UHC3); assay: ASIC3 channel functional assay (buffer pH 5.5); assay type: cell-based
T5 construct: Eurofins-CEREP or Eurofins-PANLABS (contract assay)
T5 sequence (Q9UHC3 1-531): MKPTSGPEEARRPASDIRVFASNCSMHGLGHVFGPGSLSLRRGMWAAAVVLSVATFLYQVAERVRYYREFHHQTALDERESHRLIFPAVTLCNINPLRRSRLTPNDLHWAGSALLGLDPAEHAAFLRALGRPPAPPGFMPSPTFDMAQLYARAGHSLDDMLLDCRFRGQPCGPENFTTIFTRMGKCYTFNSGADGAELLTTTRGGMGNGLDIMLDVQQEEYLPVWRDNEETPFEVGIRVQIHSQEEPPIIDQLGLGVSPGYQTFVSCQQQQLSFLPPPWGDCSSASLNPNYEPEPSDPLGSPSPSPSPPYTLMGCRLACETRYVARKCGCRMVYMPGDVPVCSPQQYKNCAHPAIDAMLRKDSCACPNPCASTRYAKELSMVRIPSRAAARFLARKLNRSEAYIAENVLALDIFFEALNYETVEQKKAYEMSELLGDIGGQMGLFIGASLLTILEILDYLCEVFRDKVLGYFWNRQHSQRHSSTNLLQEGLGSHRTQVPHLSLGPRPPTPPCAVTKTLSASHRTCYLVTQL
Text: as §3, §1

[3] = tested on: dorsal root ganglia (DRG) sensory neurons; assay: Resting membrane potential of DRG sensory neurons (current clamp Patch-Clamp); assay type: cell-based; conditions: 10 µM
Procedure: We also investigated the effect of β-lactams derivatives on the resting membrane potential (RMP) of dorsal root ganglia (DRG) sensory neurons.
(A) Representative recordings of resting membrane potential measured under current clamp configuration. The traces show the action potentials (APs) firings from DRG neurons elicited by 100 μM menthol (left trace) or in the presence of vehicle (0.5% DMSO) or the β-lactams derivatives ([…]). (B) Changes in the Vm in the absence and in the presence of 10 μM of the β-lactams derivatives. Data were analyzed by one-way ANOVA followed by Bonferroni post hoc test for multiple comparisons (ns = no significance, **** p < = 0.0001) and given as mean ± SEM; n ≥ 40 cells from 4 cultures.

[4] = tested on: oxaliplatin-induced cold hypersensitivity; assay: Oxaliplatin-induced cold allodynia in mice (acetone drop test); assay type: in vivo
Text: It is established that treatments with the chemotherapeutic drug oxaliplatin (OXA) induce painful peripheral neuropathy, known as CIPN, which becomes more pronounced in cold conditions. The TRPM8 channel has been implicated in mouse models of CIPN pain induced by OXA [19, 51]. In fact, the OXA-induced peripheral neuropathy mouse model is being used for the pharmacological characterization of TRPM8 antagonists. For this peripheral neuropathy assay, mice were subcutaneously (s.c.) injected with OXA at a dose of 6 mg/kg dose on days 1, 3 and 5 to male mice to induce increased sensitivity to cold, which can be monitored through the acetone drop test.
Consequently, compounds 34 and 35 have been tested for their ability to alleviate OXA-induced cold hypersensitivity after intraplantar administration (i.pl., 3, 1 and 0.1 μg). […] This effect was observed 15 min post-administration and sustained up to 60 min.
as §1
Figure 4 Effects of compounds 34 (A) and 35 (B) on the oxaliplatin (OXP)-induced cold hypersensitivity (drop acetone test). Peripheral neuropathy was induced in male mice by injecting OXA (6 mg/kg, s.c.) on days 1, 3 and 5. Control animals were treated with vehicle. Compounds 34 (A) and 35 (B) (3 µg/i.pl., 1 µg/i.pl. and 0.1 µg/i.pl.) were administered to the OXP-treated animals, and the time-course of cold hypersensitivity was measured. Data are given ± SEM (n = 5). Statistical analysis, comparing with oxaliplatin-treated mice, was performed by two-way ANOVA followed by post hoc Bonferroni test by multiple comparisons: * […], ** p < 0.01, **** p < 0.0001.

hTRPM3 = hTRPM3 (Homo sapiens, UniProt Q9HCF6); assay: TRPM3 channel Ca2+ microfluorimetry (pregnenolone sulfate 50 µM); assay type: cell-based; conditions: 10 µM; read-out: degree of inhibition in the Ca^2+ influx induced by pregnenolone sulfate (TRPM3)
Procedure: as §3, with “First,” for “The effects of compound 34 have been evaluated on different ion channels and receptors implicated in pain-related processes to assess the selectivity for TRPM8 channels. First,”
as §1

[5] = target: T6, rat TRPM8 channel (rTRPM8) (Rattus norvegicus, UniProt Q8R455); assay: Ca2+ microfluorimetry, menthol-induced Ca2+ entry in HEK293 cells overexpressing rTRPM8; assay type: cell-based; conditions: Table 3; rTRPM8, HEK293, activation by 100 µM menthol
T6 construct: expressed in transfected cells
Procedure: The diastereomeric 1,4,4-trisubstitutes β-lactams were evaluated as modulators of the TRPM8 channel by calcium microfluorimetry assays. These assays use a Human Embryonic Kidney 293 (HEK293) cell line that stably overexpressed rat TRPM8 channel (rTRPM8). […] Three separated experiments in triplicate were used.
The initial biological evaluation of this series of 1,3,4,4-tetrasubstituted β-lactams was performed by calcium microfluorimetry assays using the indicated HEK293 cell line overexpressing rTRPM8 channels.
as §1

hTRPM8 = target: T7, hTRPM8 (Homo sapiens, UniProt Q7Z2W7); assay: Ca2+ microfluorimetry in HEK293 cells expressing human TRPM8; assay type: cell-based; conditions: activation by 100 µM menthol; read-out: Ca^2+ Microfluorimetry Assays hTRPM8 IC50
T7 construct: expressed in transfected cells; host or cells: HEK293
Procedure: To further characterize this family of compounds, calcium microfluorimetry assays were conducted using the HEK293 cell line, which expresses the human isoform of the TRPM8 channel. Amide derivatives 34 and 35 were selected, and their outcomes were compared with those of the model compound 1 (Table 4). […] This behavior is not particular of these β-lactams, but it is similar to those observed for other TRPM8 antagonists.
as §1

T1 sequence (Q8R455 whole entry): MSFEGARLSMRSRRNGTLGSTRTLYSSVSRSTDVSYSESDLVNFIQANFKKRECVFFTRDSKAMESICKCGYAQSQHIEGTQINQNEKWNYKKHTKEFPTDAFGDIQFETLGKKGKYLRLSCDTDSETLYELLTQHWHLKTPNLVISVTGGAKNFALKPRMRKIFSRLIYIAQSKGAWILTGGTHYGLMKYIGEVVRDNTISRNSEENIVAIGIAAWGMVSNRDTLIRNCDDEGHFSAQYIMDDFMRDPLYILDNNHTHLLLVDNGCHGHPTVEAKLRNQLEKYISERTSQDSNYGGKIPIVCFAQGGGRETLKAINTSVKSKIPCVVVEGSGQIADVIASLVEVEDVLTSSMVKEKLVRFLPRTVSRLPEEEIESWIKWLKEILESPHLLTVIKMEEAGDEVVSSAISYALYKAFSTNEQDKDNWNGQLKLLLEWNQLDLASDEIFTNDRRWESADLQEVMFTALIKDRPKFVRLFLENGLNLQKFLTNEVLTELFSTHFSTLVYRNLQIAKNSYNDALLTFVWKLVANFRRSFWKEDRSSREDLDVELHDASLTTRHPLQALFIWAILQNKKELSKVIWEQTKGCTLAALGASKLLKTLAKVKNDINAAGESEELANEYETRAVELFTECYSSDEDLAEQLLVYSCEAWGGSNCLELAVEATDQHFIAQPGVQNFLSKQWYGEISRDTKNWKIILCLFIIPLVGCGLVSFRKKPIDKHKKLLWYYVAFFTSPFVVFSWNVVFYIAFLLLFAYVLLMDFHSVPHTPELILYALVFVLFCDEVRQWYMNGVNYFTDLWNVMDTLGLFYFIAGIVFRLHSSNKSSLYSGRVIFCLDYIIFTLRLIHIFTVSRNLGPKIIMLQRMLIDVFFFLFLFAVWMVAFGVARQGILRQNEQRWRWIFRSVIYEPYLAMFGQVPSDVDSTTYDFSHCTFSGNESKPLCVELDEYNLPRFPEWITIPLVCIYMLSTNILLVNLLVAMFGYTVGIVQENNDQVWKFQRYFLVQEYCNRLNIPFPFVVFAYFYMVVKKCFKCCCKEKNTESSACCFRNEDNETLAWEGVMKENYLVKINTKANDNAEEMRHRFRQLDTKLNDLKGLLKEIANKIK
T4 sequence (Q8NER1 whole entry): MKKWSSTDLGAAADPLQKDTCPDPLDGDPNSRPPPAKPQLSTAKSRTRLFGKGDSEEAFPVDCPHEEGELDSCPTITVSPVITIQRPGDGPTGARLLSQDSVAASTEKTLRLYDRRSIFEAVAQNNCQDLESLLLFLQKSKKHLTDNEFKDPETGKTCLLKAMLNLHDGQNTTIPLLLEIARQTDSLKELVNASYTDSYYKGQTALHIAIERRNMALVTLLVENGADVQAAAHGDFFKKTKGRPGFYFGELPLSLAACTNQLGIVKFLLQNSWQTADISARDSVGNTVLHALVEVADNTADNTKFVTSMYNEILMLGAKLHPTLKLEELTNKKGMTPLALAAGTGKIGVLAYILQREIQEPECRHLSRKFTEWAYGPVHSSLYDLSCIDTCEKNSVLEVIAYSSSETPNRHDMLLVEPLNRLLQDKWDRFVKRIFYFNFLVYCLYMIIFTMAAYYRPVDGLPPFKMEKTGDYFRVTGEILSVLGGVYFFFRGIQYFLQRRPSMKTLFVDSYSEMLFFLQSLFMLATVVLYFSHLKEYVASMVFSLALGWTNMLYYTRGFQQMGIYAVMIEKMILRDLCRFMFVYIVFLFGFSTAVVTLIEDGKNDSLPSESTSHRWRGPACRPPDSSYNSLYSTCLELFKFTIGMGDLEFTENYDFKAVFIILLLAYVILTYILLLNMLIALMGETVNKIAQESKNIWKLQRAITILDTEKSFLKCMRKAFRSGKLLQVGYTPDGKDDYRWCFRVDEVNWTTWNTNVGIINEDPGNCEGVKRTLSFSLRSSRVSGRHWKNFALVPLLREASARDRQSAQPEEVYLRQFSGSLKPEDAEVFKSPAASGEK
Chain of hTRPM3 (Q9HCF6 whole entry): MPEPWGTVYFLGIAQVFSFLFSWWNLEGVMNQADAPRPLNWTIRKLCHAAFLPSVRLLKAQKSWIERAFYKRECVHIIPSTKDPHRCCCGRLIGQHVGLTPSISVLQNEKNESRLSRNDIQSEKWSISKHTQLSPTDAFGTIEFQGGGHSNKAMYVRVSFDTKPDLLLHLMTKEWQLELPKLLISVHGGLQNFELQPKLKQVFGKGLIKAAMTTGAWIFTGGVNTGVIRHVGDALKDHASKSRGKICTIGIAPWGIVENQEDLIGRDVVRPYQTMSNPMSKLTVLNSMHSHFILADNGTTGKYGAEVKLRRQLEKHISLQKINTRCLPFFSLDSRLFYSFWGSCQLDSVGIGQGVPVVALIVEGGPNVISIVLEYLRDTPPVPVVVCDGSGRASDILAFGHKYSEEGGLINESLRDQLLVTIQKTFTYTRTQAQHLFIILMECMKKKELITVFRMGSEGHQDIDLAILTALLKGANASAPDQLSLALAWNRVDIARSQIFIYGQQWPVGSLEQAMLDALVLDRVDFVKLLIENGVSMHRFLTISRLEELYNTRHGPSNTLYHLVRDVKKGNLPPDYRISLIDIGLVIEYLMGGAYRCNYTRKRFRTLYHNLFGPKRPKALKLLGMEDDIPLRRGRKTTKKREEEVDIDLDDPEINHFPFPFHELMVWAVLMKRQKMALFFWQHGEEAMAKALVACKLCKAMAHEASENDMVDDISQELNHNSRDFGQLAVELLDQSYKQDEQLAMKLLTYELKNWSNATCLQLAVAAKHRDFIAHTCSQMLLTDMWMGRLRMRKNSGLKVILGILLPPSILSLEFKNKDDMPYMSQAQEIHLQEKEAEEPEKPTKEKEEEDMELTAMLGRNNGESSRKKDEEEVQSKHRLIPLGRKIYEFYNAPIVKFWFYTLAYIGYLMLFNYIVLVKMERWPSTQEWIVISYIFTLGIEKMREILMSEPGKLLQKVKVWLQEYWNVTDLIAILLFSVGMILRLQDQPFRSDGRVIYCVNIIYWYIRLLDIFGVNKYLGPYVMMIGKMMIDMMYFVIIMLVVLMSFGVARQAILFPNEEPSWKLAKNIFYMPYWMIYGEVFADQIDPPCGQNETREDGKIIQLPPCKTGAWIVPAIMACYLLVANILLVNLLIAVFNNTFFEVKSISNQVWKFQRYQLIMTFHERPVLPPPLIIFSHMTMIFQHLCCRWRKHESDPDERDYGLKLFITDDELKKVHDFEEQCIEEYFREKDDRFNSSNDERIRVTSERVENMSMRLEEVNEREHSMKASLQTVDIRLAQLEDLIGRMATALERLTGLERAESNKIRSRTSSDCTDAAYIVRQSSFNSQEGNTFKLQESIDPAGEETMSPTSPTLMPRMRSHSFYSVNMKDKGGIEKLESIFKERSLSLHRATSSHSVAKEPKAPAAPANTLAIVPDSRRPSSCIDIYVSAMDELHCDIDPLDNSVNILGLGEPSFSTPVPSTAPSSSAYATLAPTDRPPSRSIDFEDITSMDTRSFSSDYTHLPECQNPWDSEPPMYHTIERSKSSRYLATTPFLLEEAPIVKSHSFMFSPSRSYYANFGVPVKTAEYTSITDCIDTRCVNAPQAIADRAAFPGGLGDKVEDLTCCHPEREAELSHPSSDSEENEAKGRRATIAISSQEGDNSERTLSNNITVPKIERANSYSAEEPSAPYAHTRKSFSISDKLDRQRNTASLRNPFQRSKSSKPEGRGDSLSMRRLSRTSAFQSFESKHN
T6 sequence (Q8R455 whole entry): as the sequence (Q8R455 whole entry) above
Chain of hCB2 (P34972 whole entry): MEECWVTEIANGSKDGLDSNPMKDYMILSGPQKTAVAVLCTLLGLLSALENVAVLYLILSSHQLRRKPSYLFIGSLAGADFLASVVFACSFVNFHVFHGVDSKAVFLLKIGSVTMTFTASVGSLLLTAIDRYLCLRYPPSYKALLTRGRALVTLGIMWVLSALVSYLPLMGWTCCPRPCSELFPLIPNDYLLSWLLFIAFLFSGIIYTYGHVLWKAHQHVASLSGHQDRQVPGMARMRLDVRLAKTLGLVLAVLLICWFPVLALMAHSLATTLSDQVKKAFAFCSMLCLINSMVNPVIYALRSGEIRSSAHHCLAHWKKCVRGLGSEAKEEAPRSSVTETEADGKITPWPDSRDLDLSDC
Chain of hCGRPR (Q16602 23-461): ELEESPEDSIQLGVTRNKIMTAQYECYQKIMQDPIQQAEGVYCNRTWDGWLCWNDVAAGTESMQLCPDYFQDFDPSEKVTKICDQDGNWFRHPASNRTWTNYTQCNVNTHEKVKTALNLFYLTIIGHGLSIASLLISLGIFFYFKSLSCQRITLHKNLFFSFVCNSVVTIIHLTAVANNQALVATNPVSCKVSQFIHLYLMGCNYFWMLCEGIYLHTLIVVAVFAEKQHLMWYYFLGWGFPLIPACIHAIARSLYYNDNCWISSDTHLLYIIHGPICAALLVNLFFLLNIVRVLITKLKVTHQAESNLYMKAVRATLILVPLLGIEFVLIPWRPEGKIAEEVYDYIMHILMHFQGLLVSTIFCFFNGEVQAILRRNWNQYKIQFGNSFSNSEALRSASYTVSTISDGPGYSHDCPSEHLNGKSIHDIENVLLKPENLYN
Chain of hCGRPR (O60894 27-148): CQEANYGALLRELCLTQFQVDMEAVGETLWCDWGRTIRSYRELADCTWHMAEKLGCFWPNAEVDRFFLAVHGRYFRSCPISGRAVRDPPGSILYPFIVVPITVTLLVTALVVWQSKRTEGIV

Row | IC50 (rTRPM8) [nM] | inhibition at 10 µM (hCB2) [%] | inhibition at 10 µM (hTRPA1) [%] | inhibition at 10 µM (hTRPV3) [%] | inhibition at 10 µM (hTRPV1 [1]) [%] | inhibition at 10 µM (hM3) [%] | inhibition at 10 µM (hCGRPR) [%] | inhibition at 10 µM (hASIC3 channel) [%] | inhibition at 10 µM (hTRPM3) [%] | IC50 [5] [nM] | IC50 (hTRPM8) [nM] | Structure (SMILES) | activation on the TRPV1 channel (hTRPV1 [2]) | effect on resting membrane potential (RMP) [3] | time the antiallodynic effect is sustained ([4]; i.pl., observed from 15 min post-administration) | effect on cold-induced paw licking ([4]; male mice, OXA 6 mg/kg s.c. days 1, 3, 5, i.pl. 3, 1 and 0.1 μg)
1 | 600 ± 1660 | 7.3 ± 0.3 | 4.2 ± 1.1 | -6.3 ± 5.9 | 19.4 ± 1.7 | -4.1 ± 3.1 | -1 ± 4.3 | 6 ± 0.9 | – | – | – | C[C@@H]1C(=O)N(C[C@H](Cc2ccccc2)N(Cc2ccccc2)Cc2ccccc2)[C@]1(Cc1ccccc1)C(=O)OC(C)(C)C [Compound 1] | about 30% | – | – | –
2 | 480 ± 1330 | – | – | – | – | – | – | – | 4.1 ± 10.8 | 490 ± 1270 | 3330 ± 1280 | C[C@@H]1C(=O)N(C[C@H](Cc2ccccc2)N(Cc2ccccc2)Cc2ccccc2)[C@]1(Cc1ccccc1)C(=O)NCc1ccccc1 [Compound 35, 4S-Benzyl-4-[N-(benzyl)-carbamoyl]-3S-methyl-1-[(2′S-dibenzylamino-3′-phenyl)prop-1′-yl]-2-oxoazetidine] | – | did not alter the RMP | up to 60 min | dose-dependent and significant reduction
